Patent US9279806B2, “Water-soluble AIE luminogens for monitoring and retardation of fibrillation of amyloid proteins” (THE HONG KONG UNIVERSITY OF SCIENCE AND TECHNOLOGY, priority 2005, dated 2016)

Assays:
[1] = tested on: ctDNA/RNA from torula yeast/BSA; assay: Fluorescence increments / binding isotherm with ctDNA, RNA and BSA; conditions: dye 5 μM
Protocol: FIG. 8 illustrates increments of fluorescence of TPE-C2N^+ (8), N+C2-TPE-C2N^+ (9), TPE-C4N^+ (10), N+C4-TPE-C4N^+ (11) when binding with 10 μg/ml ctDNA/10 μg/ml RNA diethylaminoethanol (DEAE) salt from torula yeast/10 μg/ml RNA from torula yeast in buffer solution pH=7. Concentration of dyes: 5 μM; excitation wavelength: 350 nm. The four cationic TPE derivatives display larger FL enhancement in the presence of DNA than that of RNA.
FIG. 9 illustrates the binding isotherm of N+C2-TPE-C2N^+ (5 μM) to ctDNA/RNA from torula yeast/BSA (plot of the fluorescence intensity at 470 nm for ctDNA/RNA, and at 467 nm for BSA) in aqueous phosphate buffer (pH=7.0).

G1 [2] = assay: PAGE assay of G1, gel poststaining; set-up: species or system human; conditions: gel poststained with 10 μM TTAPE for 5 min
Protocol: The FL “turn-on” switching of TTAPE by binding to G1 strand inspires us to check whether it can be used as a DNA marker in the PAGE assay. Electrophoresis assay of G1 was performed on a Hoefer miniVE system in 1xTBE buffer under nondenaturing conditions using a 20% native poly(acrylamide) gel at 100V for 3 h at […]. An AlphaDigiDoc™ system with a DE-500 MultiImage™ II light cabinet and an ML-26 UV transilluminator (Alpha Innotech) was used for data collection and analysis. The gel was poststained with a 10 μM TTAPE solution for 5 min at room temperature, rinsed with distilled water, and photographed under UV light at 290-330 nm by the gel documentation system. EB was used to poststain the gel in parallel for comparison. Concentrations of G1 in the range of 0.5-10.0 μM were used to check the visualizability of the dye-stained DNA in the PAGE assay.
After running PAGE of G1 in a Tris-borate-ethylene-diaminetetraacetic acid (TBE) buffer, the gel is stained by a TTAPE solution for 5 min. […] Ethidium bromide (EB) is a widely used visualization agent for PAGE assay. […] The G1 bands are not visualized until the gel has been stained by EB for as long as 30 min. Band visualization by EB is usually realized by its intercalation into the hydrophobic region of DNA, which makes the staining a slow process. […]

H21 = assay: Job plots for the binding of TTAPE to H21
Protocol: The sum of TTAPE and DNA concentrations was kept at 10 μM. Fluorescent intensities for the bound TTAPE at 470 nm are normalized to the maximum increase in each case. The y-axis represents the difference in PL intensity for mole fraction of ligand (χL) in DNA. Intercept mole fraction values were determined from least-squares fits to the linear data portions, giving yjni values of 0.50 (1:1 stoichiometry) for H21 in K-Tris, 0.67 […] for H21 in Na-Tris, and 0.75 […] for H21 in Tris-HCl, respectively.

G1 [3] = assay: Time-dependent FL of G1 folding; assay type: biochemical, human
Protocol: Time-dependent FL was measured on a FluostarOptima multifunctional microplate reader (BMG Labtechnologies) with λex/λem set at 350/470 nm. To gain insight into dynamics of the folding process of G1, time-dependent FL measurements are performed. Solutions containing TTAPE and G1 are first incubated for 30 min to ensure complete dye/DNA complexation and transferred to a 96-well microtiter plate after incubation. Appropriate amounts of metal ions were added by an automatic injection mode. Kinetic measurements were performed at 20° C. and the FL data were recorded in every 4 s. The change in the emission intensity (1) of the solution after the addition of K^+ can be fitted by a second-order exponential curve: I=A1e^−t/τ1+A2e^−t/τ2+c Eq. (1) where t is the time, τ1 and r2 are the time constants of FL recovery, A^1 and A^2 are the respective amplitudes (the folding process is characterized by negative A values), and c is the FL intensity at t=infinity. Mean time constant (<τ>) was calculated according to eq. 2:
In one embodiment, a solution of potassium chloride is then injected at time t=0 (automatic injection mode) and the emission intensity at 470 nm is monitored. The emission drops abruptly to ˜30% of its original intensity at the beginning but starts to recover after ˜8 s and finally reaches a plateau at ˜320 s (FIG. 42). […]

Solubility = assay type: physicochemical

With `CC[N+](CC)(CC)CCOc1ccc(C(=C(c2ccc(OCC[N+](CC)(CC)CC)cc2)c2ccc(OCC[N+](CC)(CC)CC)cc2)c2ccc(OCC[N+](CC)(CC)CC)cc2)cc1.[Br-].[Br-].[Br-].[Br-]` [TTAPE, 1,1,2,2-tetrakis[4-(2-triethylammonioethoxy)phenyl]ethene tetrabromide] the “Variety of FL in presence of DNA and RNA compared with TPE-C2N+ and TPE-C4N+” value ([1]; 10 μg/ml ctDNA or RNA) was “much larger variety of FL”, the “Relative affinity to DNA, RNA and proteins” value ([1]; aqueous phosphate buffer pH 7.0) was “larger affinity to DNA than to RNA and proteins” and the Detectable G1 concentration (sensitivity test) (G1 [2]) was 0.5 µM. For the same compound, the “Job plot intercept mole fraction” value (H21; H21 in K-Tris buffer pH 7.50) was 0.50, the “Job plot intercept mole fraction” value (H21; H21 in Na-Tris buffer pH 7.50) was 0.67 and the “Job plot intercept mole fraction” value (H21; H21 in Tris-HCl buffer pH 7.50) was 0.75. For the same compound, the “Weighted mean time constant (<τ>) of FL recovery” value (G1 [3]; K+ 0.5 M injected into TTAPE/G1, 470 nm, 20 °C) was 116 s, the “Time at which recovered emission reaches a plateau” value (G1 [3]; K+ injected into TTAPE/G1, 470 nm) was about 320 s and the Solubility in water (Solubility) was “completely soluble in water”.
